Peptide text beside a SMILES is read from it.
Columns and labels:
Assay type in all cases: in vivo
[1] = tested on: Serum FSH; experiment: Serum FSH in unilaterally ovariectomized mice (Table II); conditions: 24 hr after treatment, control 296.8 ± 375
Experimental: (§1) B. The effect of threonine-serine-lysine on serum concentrations of FSH in the […] is measured 24 hr after intraperitoneal injection of threonine-serine-lysine to unilaterally ovariectomized mice. On day 5 after injection, the animals were sacrificed and ovarian weights recorded There are then determined compensatory ovarian hypertrophy (5 days after treatment) as well as the serum FSH (24 hr after treatment).

[2] = tested on: Female Mice; experiment: Compensatory ovarian hypertrophy in unilaterally ovariectomized mice (Table II); conditions: 5 days after treatment, control 29.7 ± 8.4
Experimental: as §1

[3] = tested on: GnRH-induced rise in FSH; experiment: Inhibition of GnRH-induced rise in FSH in the male rat (Table III); conditions: for Mean concentration of plasma FSH (± SE): GnRH-treated male rat
Experimental: C. The antifertility effects of threonine-serine-lysine on the male rat are measured by their ability to inhibit GnRH-or gonadotropin releasing hormone-induced rise in FSH when threonine-serine-lysine is administered intravenously. In this test, both control and tripeptide-treated animals received GnRH in a phosphate buffered saline solution, followed by the administration of the tripeptide in the same buffer.

[4] = tested on: adult female mice; experiment: Compensatory Ovarian Hypertrophy (COH) after unilateral ovariectomy (Table I); conditions: for COH (± SE): sacrificed day 5, control 45.5 ± 5.3
Experimental: A. Compensatory Ovarian Hypertrophy (COH) is an effect in standard laboratory (mammalian) animals for assessing antigonadotrophic activity by determining the increase in weight of the remaining gonad after unilateral gonadectomy. Procedures for COH measurement in female rats are described in Ramirez, V.D., et al., Endocrinology 95:475 (1974). According to these known procedures threonine-serine-lysine, prepared in Example 1, is administered intraperitoneally to adult female mice on the same day as a unilateral ovariectomy is performed. On day 5, both experimental and control animals are sacrificed and mean ovarian weights are obtained.

Compound: C[C@@H](O)[C@H](N)C(=O)N[C@@H](CO)C(=O)N[C@@H](CCCCN)C(=O)O [threonine-serine-lysine] (H-Thr-Ser-Lys-OH)
- Serum FSH (± SE) ([1]; dose 35.1 ng intraperitoneal): 254.4 ± 88.7 ng/mL
- Serum FSH (± SE) ([1]; dose 70.3 ng intraperitoneal): 377.0 ± 56.9 ng/mL
- Serum FSH (± SE) ([1]; dose 175.7 ng intraperitoneal): 165.0 ± 22.5 ng/mL
- Serum FSH (± SE) ([1]; dose 351.7 ng intraperitoneal): 179.0 ± 60.9 ng/mL
- COH (± SE) ([2]; dose 35.1 ng intraperitoneal): 12.6 ± 10.9%
- COH (± SE) ([2]; dose 70.3 ng intraperitoneal): 21.9 ± 8.0%
- COH (± SE) ([2]; dose 175.7 ng intraperitoneal): 12.9 ± 5.0%
- COH (± SE) ([2]; dose 351.7 ng intraperitoneal): 21.1 ± 7.8%
- Mean concentration of plasma FSH (± SE) ([3]; dose 1.48 ng intravenously, 0 min, control 362.5 ± 20.7): 302.2 ± 26.2 ng/mL
- Mean concentration of plasma FSH (± SE) ([3]; dose 1.48 ng intravenously, 15 min, control 1753.4 ± 450.6): 338.4 ± 38.8 ng/mL
- Mean concentration of plasma FSH (± SE) ([3]; dose 1.48 ng intravenously, 30 min, control 1701.6 ± 720.6): 592.5 ± 217.6 ng/mL
- Mean concentration of plasma FSH (± SE) ([3]; dose 1.48 ng intravenously, 60 min, control 247.8 ± 14.0): 586.5 ± 301.3 ng/mL
- Mean concentration of plasma FSH (± SE) ([3]; dose 14.8 ng intravenously, 0 min, control 362.5 ± 20.7): 45.6 ± 52.3 ng/mL
- Mean concentration of plasma FSH (± SE) ([3]; dose 14.8 ng intravenously, 15 min, control 1753.4 ± 450.6): 402.9 ± 117.7 ng/mL
- Mean concentration of plasma FSH (± SE) ([3]; dose 14.8 ng intravenously, 30 min, control 1701.6 ± 720.6): 472.7 ± 76.9 ng/mL
- Mean concentration of plasma FSH (± SE) ([3]; dose 14.8 ng intravenously, 60 min, control 247.8 ± 14.0): 684.5 ± 142.0 ng/mL
- Mean concentration of plasma FSH (± SE) ([3]; dose 148 ng intravenously, 0 min, control 362.5 ± 20.7): 43.9 ± 85.6 ng/mL
- Mean concentration of plasma FSH (± SE) ([3]; dose 148 ng intravenously, 15 min, control 1753.4 ± 450.6): 646.1 ± 198.0 ng/mL
- Mean concentration of plasma FSH (± SE) ([3]; dose 148 ng intravenously, 30 min, control 1701.6 ± 720.6): 1407.8 ± 499.6 ng/mL
- Mean concentration of plasma FSH (± SE) ([3]; dose 148 ng intravenously, 60 min, control 247.8 ± 14.0): 1279.6 ± 180.8 ng/mL
- GnRH-induced rise in FSH, result in words ([3]; intravenous, male rat, Table III doses): FSH suppression
- COH (± SE) ([4]; dose 186.1 ng intraperitoneally on day of unilateral ovariectomy): 34.6 ± 6.8%
- COH (± SE) ([4]; dose 372.2 ng intraperitoneally on day of unilateral ovariectomy): 11.1 ± 15.1%
- Compensatory ovarian hypertrophy, result in words ([4]; intraperitoneal, Table I doses): reduced in a dose-dependent manner

From US4163011A, “Peptide compounds and compositions” (priority 1978, dated 1979)
